Data from patent publication US11667645B2, “Granzyme B directed imaging and therapy” (CytoSite Biopharma Inc., priority 2018, dated 2023).
Where two headings read alike, the source gives them in different places.

Legend:
[1] = biological target: Granzyme B (human lymphocytes) (Homo sapiens (Human), UniProt P10144); experiment: human Granzyme B biochemical assay
Method in brief: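 Fluorogenic Ac-IETD-AFC cleavage (Ex 400/Em 505 nm) read after 60 min at 22 °C, following 30 min, 22 °C enzyme–compound pre-incubation. Working stocks: enzyme 10 nM in 0.1% BSA buffer, substrate 800 µM, compound 8 points, 3.16-fold from 40 µM. Controls set 0% (DMSO) and 100% (standard inhibitor) inhibition; IC50 fitted.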

[2] = metabolic stability assay using liver microsomes; format: in vitro ADME; settings: human liver microsomes, with NRS at 37° C.
Method: In addition, compounds of Formula I-VIII described above are also tested in the metabolic stability assay using liver microsomes, as provided below.
Buffer pH7.4: Prepare 1 (M) KH2PO4 and 1 (M) K2HPO4. Titrate 1(M) K2HPO4 with 1 (M) KH2PO4 to obtain pH 7.40. Dilute this buffer 10 fold in Water (30 ml buffer+270 ml of water) to obtain 100 mM phosphate buffer. Adjust pH to 7.40±0.02 using 5(N) HCl or 5(N) NaOH.
NADPH Regeneration System (NRS): Prepare a solution containing 13 mM NADP, 33 mM Glucose-6-phosphate, 33 mM MgCl2 and 4 U/ml Glucose-6-phosphate dehydrogenase in buffer.
Liver Microsome (LM) suspension: Thaw LM vial on ice, then mix 1.0 ml LM (20 mg/ml) with 19 ml buffer [final LM Conc: 1 mg/ml]
LM+NRS suspension: Mix 5.0 ml NRS with 20 ml LM suspension [final LM Conc: 0.8 mg/ml]
System suitability standard: a synthesized compound having Mol wt 686.2 used as System suitability standard. Dissolve this compound in ice-cold acetonitrile to obtain concentration of 0.1 μg/ml and store at 4° C.
Compound Stock: 10 mM in DMSO
Sub stock (100 μM): 4 μl of 10 mM Compound Stock+[…] Acetonitrile
Working plate (2 μM): 10 μl of 100 μM Sub stock+490 μl buffer
Incubate all plastic materials including tips at 37° C. overnight.
Incubate LM suspension and NRS at 37° C. for 15 min before use.
Add 40 μl buffer to the wells of blank plate.
Add 40 μl compound (from working plate) to 0, 5, 10, 20, 30 and 60 min plates.
Initiate reaction by adding 40 μl of LM+NRS suspension in each plate.
Terminate reaction by adding 240 μl ice-cold acetonitrile containing system suitability standard at designated time points. For T=0 add 240 μl ice-cold acetonitrile containing system suitability standard before LM+NRS addition.
Centrifuge (3500 rpm, 20 min and 15° C.) the plates.
Mix 110 μl supernatant with 110 μl water and quantitate amount of Compound in the solution using LC-MS/MS.
For Scaled CLint & Predicted CL use the relevant physiological parameters, as applicable.
Human LM: Corning, Cat #25117
Mouse LM: Xenotech, Cat #M1000
(2) Volumes mentioned in the protocol are representative values and may change depending on number of test compounds.
(3) It is assumed that the compounds are chemically stable in the assay system/buffer.
The metabolic stability assay described above can be performed using different test concentrations, LM Concentrations, or time points.
Certain compounds of this disclosure were tested in the microsomal stability assay provided above.

[3] = Granzyme B (human lymphocytes) 5 nM, substrate Ac-IETD-AFC 200 μM, Cpd incubation with enzyme 30 mins, 22° C., read time 60 mins, read-out: IC50
[4] = Granzyme B IC50 as repeated in Table 7, read-out: IC50
[5] = Granzyme B IC50 as repeated in Table 7

Sequence of Granzyme B (human lymphocytes) (P10144 21-247): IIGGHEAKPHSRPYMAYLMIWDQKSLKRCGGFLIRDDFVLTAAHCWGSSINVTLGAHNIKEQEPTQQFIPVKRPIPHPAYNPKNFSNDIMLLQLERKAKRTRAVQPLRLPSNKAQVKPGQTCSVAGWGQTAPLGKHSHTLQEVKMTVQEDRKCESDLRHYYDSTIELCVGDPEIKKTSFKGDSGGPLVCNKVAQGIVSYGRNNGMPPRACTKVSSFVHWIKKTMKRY

| Compound | IC50 [1, 3] [nM] | IC50 [1, 4] [nM] | HLM % remaining @ 30 min [2] | IC50 [1] [nM] | IC50 [1, 5] [nM] |
| --- | --- | --- | --- | --- | --- |
| CC[C@H](C)[C@H](NC(C)=O)C(=O)N[C@H]1COc2cccc3c2N(C1=O)[C@H](C(=O)NCc1c[nH]nn1)C3 [Compound C097, (1S,8S)-8-((2S,3S)-2-Acetylamino-3-methyl-pentanoylamino)-9-oxo-1,2,8,9-tetrahydro-7H-6-oxa-9a-aza-benzo[cd]azulene-1-carboxylic acid (1H-[1,2,3]triazol-4-ylmethyl)-amide] | 1 to 300 | 1 to 300 | *** (the symbol “***” indicates a remaining percentage of 71-100%) |  |  |
| CC[C@H](C)[C@H](NC(=O)CF)C(=O)N[C@H]1COc2cccc3c2N(C1=O)[C@H](C(=O)NCc1c[nH]nn1)C3 [Compound C098, (1S,8S)-8-[(2S,3S)-2-(2-Fluoro-acetylamino)-3-methyl-pentanoylamino]-9-oxo-1,2,8,9-tetrahydra-7H-6-oxa-9a-aza-benzo[cd]azulene-1-carboxylic acid (1H-[1,2,3]triazol-4-ylmethyl)-amide] |  |  | *** (the symbol “***” indicates a remaining percentage of 71-100%) | 1 to 300 | 1 to 300 |
| CC(C)[C@H](NC(=O)Cc1csc2ccccc12)C(=O)N[C@H]1CCc2cccc3c2N(C1=O)[C@H](C(=O)NCc1c[nH]nn1)C3 [Compound C003, (2S,5S)-5-[(S)-2-(2-Benzo[b]thiophen-3-yl-acetylamino)-3-methyl-butyrylamino]-4-oxo-1,2,4,5,6,7-hexahydro-azepino[3,2,1-hi]indole-2-carboxylic acid (1H-[1,2,3]triazol-4-ylmethyl)-amide] |  | 1 to 300 | * (“*” indicates a remaining percentage of 0-30%) |  |  |
| CC[C@H](C)[C@H](NC(C)=O)C(=O)N[C@H]1CCc2cccc3c2N(C1=O)[C@H](C(=O)NCc1c[nH]nn1)C3 [Compound C028, (2S,5S)-5-((2S,3S)-2-Acetylamino-3-methyl-pentanoylamino)-4-oxo-1,2,4,5,6,7-hexahydro-azepino[3,2,1-hi]indole-2-carboxylic acid (1H-[1,2,3]triazol-4-ylmethyl)-amide] | 1 to 300 | 1 to 300 | *** (the symbol “***” indicates a remaining percentage of 71-100%) |  |  |
| CC(C)[C@H](NC(=O)CF)C(=O)N[C@H]1CCc2cccc3c2N(C1=O)[C@H](C(=O)NCc1c[nH]nn1)C3 [Compound C057, (2S,5S)-5-[(S)-2-(2-Fluoro-acetylamino)-3-methyl-butyrylamino]-4-oxo-1,2,4,5,6,7-hexahydro-azepino[3,2,1-hi]indole-2-carboxylic acid (1H-[1,2,3]triazol-4-ylmethyl)-amide] |  |  | *** (the symbol “***” indicates a remaining percentage of 71-100%) | 1 to 300 | 1 to 300 |
| CC[C@H](C)[C@H](NC(=O)CF)C(=O)N[C@H]1CCc2cccc3c2N(C1=O)[C@H](C(=O)NCc1c[nH]nn1)C3 [Compound C059, (2S,5S)-5-[(2S,3S)-2-(2-Fluoro-acetylamino)-3-methyl-pentanoylamino]-4-oxo-1,2,4,5,6,7-hexahydro-azepino[3,2,1-hi]indole-2-carboxylic acid (1H-[1,2,3]triazol-4-ylmethyl)-amide] |  |  | *** (the symbol “***” indicates a remaining percentage of 71-100%) | 1 to 300 | 1 to 300 |
| CC[C@@H](C)[C@H](NC(=O)Cc1csc2ccccc12)C(=O)N[C@H]1CCc2cccc3c2N(C1=O)[C@H](C(=O)NCc1c[nH]nn1)C3 [Compound C054, (2S,5S)-5-[(2S,3R)-2-(2-Benzo[b]thiophen-3-yl-acetylamino)-3-methyl-pentanoylamino]-4-oxo-1,2,4,5,6,7-hexahydro-azepino[3,2,1-hi]indole-2-carboxylic acid (1H-[1,2,3]triazol-4-ylmethyl)-amide] | 1 to 300 | 1 to 300 | * (“*” indicates a remaining percentage of 0-30%) |  |  |
